We go through three compounds from patent US20190153409A1, “COMPOSITIONS COMPRISING PARTICLES AND METHODS FOR TREATING CANCER” (priority 2017, published 2019).

Data set [1] deals with HCT116 cells.
For another data set, the system named is p53. Nature of the data set: p53 transcription activity: GFP reporter in HCT116 cells transfected with RGC-mazE-IRES-GFP plasmid. In kind it is cell-based, human.
Data set [2] concerns HCT116 cells. Nature of the data set: Cell toxicity in transfected HCT116 cells.
The target in data set [3] is mCherry-MazF (E. coli MazF ribonuclease fused to the C terminus of the monomeric red fluorescence protein mCherry) (E. coli) (UniProt P0AE70). Nature of the data set: cell-based or functional assay.
Sequence of mCherry-MazF (E. coli MazF ribonuclease fused to the C terminus of the monomeric red fluorescence protein mCherry) (E. coli) (P0AE70 whole entry, the tested form may be a part): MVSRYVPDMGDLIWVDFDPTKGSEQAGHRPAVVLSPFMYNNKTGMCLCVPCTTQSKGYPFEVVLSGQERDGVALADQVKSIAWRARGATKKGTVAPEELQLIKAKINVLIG

Procedure for p53: In order to test the ability of p53 to bind to its responsive element and stimulate transcription, HCT116 cells were transfected with RGC-mazE-IRES-GFP plasmid. Since p53 is degraded in un-activated cells, the present inventors used Quercetin, a ubiquitous bioactive plant flavonoid that is able to induce p53 phosphorylation, stabilization and total p53 protein accumulation. Another widely used p53 inducer is the antimetabolite agent 5-FU. P53 transcription activity was evaluated by measuring the expression of the downstream reporter gene, GFP.

Take `O=c1[nH]cc(F)c(=O)[nH]1` [5-FU]: the cell toxicity result in the data set on HCT116 cells [1] is recorded as “no toxicity”. Also, the GFP expression levels result in the data set with p53 (10 μM, compared with Quercetin) is “significantly higher expression levels of GFP”.

As for `O=c1c(O)c(-c2ccc(O)c(O)c2)oc2cc(O)cc(O)c12` [Quercetin], the “cell death (cell toxicity)” value with HCT116 cells [2] amounted to 60%. For the same compound, the “increase of GFP expression” value with p53 (50 μM) is listed as “about 10 folds”.

Regarding “E. coli antitoxin MazE (from UniProt P0AE72 1-82)”, the yield of mCherry-MazF adenovirus in HEK293 packaging cells that constitutively express MazE, against parental HEK293 cells (orders of magnitude) in data set [3] came out at 2.
